Several values for one entry are separate records, joined by “and”; a condition that tells them apart may be missing. Equal values may be shown once. Inconclusive results and toxic doses are left out.
System: BDF1 mice, B16 melanoma ip, median survival T/C
Test: NCI In Vivo Anticancer Drug Screen. Data for tumor model B16 Melanoma (intraperitoneal) in B6D2F1 (BDF1) mice
Settings: endpoint: median survival time, higher = longer survival
Method in brief: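 Mice with transplantable tumors; drug vs vehicle groups; endpoint survival or tumor size; value = T/C.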

[1] = dose: 100.0 mg/kg/injection, schedule: Q01DX009 (ip), vehicle: saline with Tween-80
[2] = dose: 200.0 mg/kg/injection, schedule: Q01DX009 (ip), vehicle: saline with Tween-80
[3] = dose: 6.25 mg/kg/injection, schedule: Q01DX009 (ip), vehicle: saline with Tween-80
[4] = dose: 12.5 mg/kg/injection, schedule: Q01DX009 (ip), vehicle: saline with Tween-80
[5] = dose: 50.0 mg/kg/injection, schedule: Q01DX009 (ip), vehicle: saline with Tween-80
[6] = dose: 25.0 mg/kg/injection, schedule: Q01DX009 (ip), vehicle: saline with Tween-80
[7] = dose: 12.5 mg/kg/injection, schedule: Q01DX009 (ip), vehicle: Klucel (hydroxypropylcellulose) (HPC)
[8] = dose: 100.0 mg/kg/injection, schedule: Q04DX003 (ip), vehicle: Klucel (hydroxypropylcellulose) (HPC)
[9] = dose: 200.0 mg/kg/injection, schedule: Q04DX003 (ip), vehicle: Klucel (hydroxypropylcellulose) (HPC)
[10] = dose: 1.56 mg/kg/injection, schedule: Q01DX009 (ip), vehicle: saline
[11] = dose: 100.0 mg/kg/injection, schedule: Q01DX009 (ip), vehicle: Klucel (hydroxypropylcellulose) (HPC)
[12] = dose: 50.0 mg/kg/injection, schedule: Q01DX009 (ip), vehicle: Klucel (hydroxypropylcellulose) (HPC)

COC(=O)c1ccc(=O)c2nc3/c(=C/O)c(O)cc(=O)c3[nH]c12
T/C (dose: 0.01 mg/kg/injection, schedule: Q01DX009 (ip), vehicle: saline with Tween-80): 102 % of control | T/C (dose: 0.01 mg/kg/injection, schedule: Q04DX003 (ip), vehicle: saline with Tween-80): 91 % of control | T/C (dose: 0.02 mg/kg/injection, schedule: Q01DX009 (ip), vehicle: saline with Tween-80): 90 % of control | T/C (dose: 0.02 mg/kg/injection, schedule: Q04DX003 (ip), vehicle: saline with Tween-80): 102 % of control | T/C (dose: 0.04 mg/kg/injection, schedule: Q01DX009 (ip), vehicle: saline with Tween-80): 95 % of control | T/C (dose: 0.04 mg/kg/injection, schedule: Q04DX003 (ip), vehicle: saline with Tween-80): 106 % of control

COc1ccccc1NC(=O)Nc1cc(C)cc(C)n1
T/C [1]: 94 % of control | T/C [2]: 94 % of control | T/C (dose: 400.0 mg/kg/injection, schedule: Q01DX009 (ip), vehicle: saline with Tween-80): 89 % of control

COC(COC(N)=O)C1=C(N2CC2)C(=O)C(C)=C(N2CC2)C1=O (centres undefined)
T/C (dose: 0.03 mg/kg/injection, schedule: Q01DX009 (ip), vehicle: saline): 93 % of control and 107 % of control and 122 % of control | T/C (dose: 0.06 mg/kg/injection, schedule: Q01DX009 (ip), vehicle: saline): 101 % of control and 114 % of control | T/C (dose: 0.12 mg/kg/injection, schedule: Q01DX009 (ip), vehicle: saline): 123 % of control | T/C (dose: 0.25 mg/kg/injection, schedule: Q01DX009 (ip), vehicle: saline): 163 % of control | T/C (dose: 0.5 mg/kg/injection, schedule: Q01DX009 (ip), vehicle: saline): 179 % of control and 196 % of control

CC(CO)NC(=O)C1C=C2c3cccc4[nH]cc(c34)CC2N(C)C1 (centres undefined)
T/C (dose: 25.0 mg/kg/injection, schedule: Q01DX009 (ip), vehicle: saline): 91 % of control | T/C (dose: 50.0 mg/kg/injection, schedule: Q01DX009 (ip), vehicle: saline): 91 % of control | T/C (dose: 200.0 mg/kg/injection, schedule: Q01DX009 (ip), vehicle: saline): 86 % of control

N#C[CH2][Sn]([I])([c]1ccccc1)[c]1ccccc1
T/C (dose: 3.12 mg/kg/injection, schedule: Q01DX009 (ip), vehicle: saline with Tween-80): 93 % of control | T/C [3]: 87 % of control | T/C [4]: 86 % of control

OC(Cc1cnc2ccccc2n1)(C(F)(F)F)C(F)(F)F
T/C (dose: 100.0 mg/kg/injection, schedule: Q04DX003 (ip), vehicle: saline with Tween-80): 105 % of control | T/C (dose: 200.0 mg/kg/injection, schedule: Q04DX003 (ip), vehicle: saline with Tween-80): 105 % of control | T/C (dose: 400.0 mg/kg/injection, schedule: Q04DX003 (ip), vehicle: saline with Tween-80): 102 % of control

Clc1ccc(C(c2ccccc2Cl)C(Cl)Cl)cc1 (centres undefined)
T/C [5]: 95 % of control | T/C [1]: 95 % of control | T/C [2]: 90 % of control

CCC(C)C(C(=O)OCCN(C)C)c1ccccc1 (centres undefined)
T/C [6]: 100 % of control | T/C [5]: 112 % of control | T/C [1]: 99 % of control

Cc1ccc(Cl)cc1NC(=O)c1ccc([N+](=O)[O-])cc1
T/C [6]: 112 % of control | T/C [5]: 110 % of control | T/C [1]: 96 % of control

c1cc2ccc3ccc(C4CO4)c4ccc(c1)c2c34 (centres undefined)
T/C (dose: 3.12 mg/kg/injection, schedule: Q01DX009 (ip), vehicle: Klucel (hydroxypropylcellulose) (HPC)): 95 % of control | T/C (dose: 6.25 mg/kg/injection, schedule: Q01DX009 (ip), vehicle: Klucel (hydroxypropylcellulose) (HPC)): 96 % of control | T/C [7]: 100 % of control | T/C (dose: 25.0 mg/kg/injection, schedule: Q01DX009 (ip), vehicle: Klucel (hydroxypropylcellulose) (HPC)): 86 % of control

O=C1C2CC=CCC2C(=O)N1SC(Cl)(Cl)Cl (centres undefined)
T/C (dose: 0.2 mg/kg/injection, schedule: Q01DX009 (ip), vehicle: saline with Tween-80): 98 % of control | T/C (dose: 0.4 mg/kg/injection, schedule: Q01DX009 (ip), vehicle: saline with Tween-80): 100 % of control | T/C (dose: 0.8 mg/kg/injection, schedule: Q01DX009 (ip), vehicle: saline with Tween-80): 97 % of control | T/C (dose: 3.13 mg/kg/injection, schedule: Q01DX009 (ip), vehicle: saline with Tween-80): 88 % of control

O=[N+]([O-])c1ccc(Sc2ccncn2)c([N+](=O)[O-])c1
T/C [4]: 100 % of control and 109 % of control | T/C [6]: 94 % of control and 101 % of control | T/C [5]: 95 % of control and 106 % of control | T/C [1]: 108 % of control

COC(=O)C1C2CC(C3OC23)C1C(=O)OC (centres undefined)
T/C [8]: 94 % of control | T/C [9]: 100 % of control | T/C (dose: 400.0 mg/kg/injection, schedule: Q04DX003 (ip), vehicle: Klucel (hydroxypropylcellulose) (HPC)): 96 % of control

CCOC(C[Se][Se]CC(OCC)OCC)OCC
T/C [10]: 99 % of control | T/C (dose: 3.13 mg/kg/injection, schedule: Q01DX009 (ip), vehicle: saline): 104 % of control | T/C (dose: 6.25 mg/kg/injection, schedule: Q01DX009 (ip), vehicle: saline): 95 % of control

CC1(C)N=C(N)N=C(N)N1c1cccc(Cl)c1
T/C (dose: 5.0 mg/kg/injection, schedule: Q01DX009 (ip), vehicle: saline): 115 % of control | T/C (dose: 10.0 mg/kg/injection, schedule: Q01DX009 (ip), vehicle: saline): 115 % of control | T/C (dose: 10.0 mg/kg/injection, schedule: Q04DX003 (ip), vehicle: saline): 118 % of control | T/C (dose: 20.0 mg/kg/injection, schedule: Q01DX009 (ip), vehicle: saline): 120 % of control | T/C (dose: 20.0 mg/kg/injection, schedule: Q04DX003 (ip), vehicle: saline): 117 % of control | T/C (dose: 40.0 mg/kg/injection, schedule: Q01DX009 (ip), vehicle: saline): 120 % of control

Cc1cc(Cl)ccc1NC(=O)c1ccccc1
T/C [11]: 103 % of control | T/C (dose: 200.0 mg/kg/injection, schedule: Q01DX009 (ip), vehicle: Klucel (hydroxypropylcellulose) (HPC)): 99 % of control | T/C (dose: 400.0 mg/kg/injection, schedule: Q01DX009 (ip), vehicle: Klucel (hydroxypropylcellulose) (HPC)): 100 % of control

Cc1nc2ccccc2nc1CI
T/C (dose: 0.75 mg/kg/injection, schedule: Q01DX009 (ip), vehicle: saline with Tween-80): 106 % of control | T/C (dose: 1.5 mg/kg/injection, schedule: Q01DX009 (ip), vehicle: saline with Tween-80): 93 % of control | T/C (dose: 3.0 mg/kg/injection, schedule: Q01DX009 (ip), vehicle: saline with Tween-80): 106 % of control | T/C (dose: 6.0 mg/kg/injection, schedule: Q01DX009 (ip), vehicle: saline with Tween-80): 93 % of control | T/C [3]: 91 % of control

O=CC(O)C(O)C(O)C(O)C(=O)O.[NH-]C1CCCCC1[NH-].[Pt+2] (centres undefined)
T/C (dose: 0.2 mg/kg/injection, schedule: Q01DX009 (ip), vehicle: saline): 105 % of control | T/C [10]: 162 % of control

CCCCCCCCCCCCCCCCCCOC(=O)Cc1ccc(N(CCCl)CCCl)cc1
T/C (dose: 180.0 mg/kg/injection, schedule: Q04DX003 (ip), vehicle: saline with Tween-80): 102 % of control | T/C (dose: 266.0 mg/kg/injection, schedule: Q04DX003 (ip), vehicle: saline with Tween-80): 107 % of control

CCC1OC(=O)CC(O)C(C)C(OC2OC(C)CC(N(C)C)C2O)C(CC=O)CC(C)C(=O)/C=C/C2(C)OC2C1C (centres undefined)
T/C [12]: 88 % of control | T/C [11]: 92 % of control

CN(C)S(=O)(=O)C(C)(C)c1ccccc1
T/C [5]: 90 % of control | T/C [1]: 93 % of control | T/C [2]: 95 % of control

C=C(C)C12OC3(CCCCCCCCC)OC1C1C4OC4(COC(=O)CCCCCCCCCCCCCCC)C(O)C4(O)C(=O)C(C)=CC4C1(O3)C(C)C2OC(=O)c1ccccc1 (centres undefined)
T/C (dose: 0.5 micrograms/kg/injection, schedule: Q01DX009 (ip), vehicle: saline): 102 % of control | T/C (dose: 1.0 micrograms/kg/injection, schedule: Q01DX009 (ip), vehicle: saline): 105 % of control | T/C (dose: 1.9 micrograms/kg/injection, schedule: Q01DX009 (ip), vehicle: saline): 91 % of control | T/C (dose: 3.8 micrograms/kg/injection, schedule: Q01DX009 (ip), vehicle: saline): 110 % of control | T/C (dose: 7.5 micrograms/kg/injection, schedule: Q01DX009 (ip), vehicle: saline): 91 % of control | T/C (dose: 15.0 micrograms/kg/injection, schedule: Q01DX009 (ip), vehicle: saline): 100 % of control | T/C (dose: 30.0 micrograms/kg/injection, schedule: Q01DX009 (ip), vehicle: saline): 100 % of control

CCN(CC)CCOc1cc(C)ccc1C(C)C
T/C [12]: 111 % of control | T/C (dose: 50.0 mg/kg/injection, schedule: Q04DX003 (ip), vehicle: Klucel (hydroxypropylcellulose) (HPC)): 95 % of control | T/C [8]: 97 % of control | T/C [9]: 86 % of control

CCOc1ccc2nc(Cl)sc2c1
T/C [8]: 105 % of control

CCOC(=O)C1C(=O)C(CN(CCCl)CCCl)C(=O)C(C(=O)OCC)C1c1ccc(O)cc1 (centres undefined)
T/C [7]: 158 % of control

CCO/C=C1\SC(=S)N(c2ccc(C(=O)O)cc2)C1=O
T/C [4]: 107 % of control | T/C [6]: 115 % of control | T/C [5]: 110 % of control
